Data as given in US10485815B2, “Substituted nucleosides, nucleotides and analogs thereof” (Alios BioPharma, Inc., priority 2012, dated 2019).
Read-outs that look alike come from different tables or passages of the source.

Legend:
[1] = system: Influenza strain A/WSN/33 (H1N1); assay: microbe, parasite or virus in culture; assay type: cell-based; conditions: A549, 20 h, read-out: % Inhibition
RSV A2 (ATCC: VR-1540) = assay: RSV RT-PCR based assay in HEp-2 cells; assay type: cell-based; conditions: human respiratory syncytial virus
hPIV3-eGFP = assay: microbe, parasite or virus in culture; assay type: cell-based, human parainfluenza virus 3; conditions: Human respirovirus 3, A549, 72 h
[2] = system: human parainfluenza virus 3 (hPIV3, ATCC: VR-93); assay: Parainfluenza virus-3 (PIV-3) RT-PCR assay in A549 cells; assay type: cell-based; conditions: Human respirovirus 3, 168 h, hPIV3 MOI 0.1, 7 days after infection
RSV polymerase = RSV polymerase (Human respiratory syncytial virus A, UniProt P28887); assay: biochemical
RSV polymerase, sequence (P28887 whole entry, looked up): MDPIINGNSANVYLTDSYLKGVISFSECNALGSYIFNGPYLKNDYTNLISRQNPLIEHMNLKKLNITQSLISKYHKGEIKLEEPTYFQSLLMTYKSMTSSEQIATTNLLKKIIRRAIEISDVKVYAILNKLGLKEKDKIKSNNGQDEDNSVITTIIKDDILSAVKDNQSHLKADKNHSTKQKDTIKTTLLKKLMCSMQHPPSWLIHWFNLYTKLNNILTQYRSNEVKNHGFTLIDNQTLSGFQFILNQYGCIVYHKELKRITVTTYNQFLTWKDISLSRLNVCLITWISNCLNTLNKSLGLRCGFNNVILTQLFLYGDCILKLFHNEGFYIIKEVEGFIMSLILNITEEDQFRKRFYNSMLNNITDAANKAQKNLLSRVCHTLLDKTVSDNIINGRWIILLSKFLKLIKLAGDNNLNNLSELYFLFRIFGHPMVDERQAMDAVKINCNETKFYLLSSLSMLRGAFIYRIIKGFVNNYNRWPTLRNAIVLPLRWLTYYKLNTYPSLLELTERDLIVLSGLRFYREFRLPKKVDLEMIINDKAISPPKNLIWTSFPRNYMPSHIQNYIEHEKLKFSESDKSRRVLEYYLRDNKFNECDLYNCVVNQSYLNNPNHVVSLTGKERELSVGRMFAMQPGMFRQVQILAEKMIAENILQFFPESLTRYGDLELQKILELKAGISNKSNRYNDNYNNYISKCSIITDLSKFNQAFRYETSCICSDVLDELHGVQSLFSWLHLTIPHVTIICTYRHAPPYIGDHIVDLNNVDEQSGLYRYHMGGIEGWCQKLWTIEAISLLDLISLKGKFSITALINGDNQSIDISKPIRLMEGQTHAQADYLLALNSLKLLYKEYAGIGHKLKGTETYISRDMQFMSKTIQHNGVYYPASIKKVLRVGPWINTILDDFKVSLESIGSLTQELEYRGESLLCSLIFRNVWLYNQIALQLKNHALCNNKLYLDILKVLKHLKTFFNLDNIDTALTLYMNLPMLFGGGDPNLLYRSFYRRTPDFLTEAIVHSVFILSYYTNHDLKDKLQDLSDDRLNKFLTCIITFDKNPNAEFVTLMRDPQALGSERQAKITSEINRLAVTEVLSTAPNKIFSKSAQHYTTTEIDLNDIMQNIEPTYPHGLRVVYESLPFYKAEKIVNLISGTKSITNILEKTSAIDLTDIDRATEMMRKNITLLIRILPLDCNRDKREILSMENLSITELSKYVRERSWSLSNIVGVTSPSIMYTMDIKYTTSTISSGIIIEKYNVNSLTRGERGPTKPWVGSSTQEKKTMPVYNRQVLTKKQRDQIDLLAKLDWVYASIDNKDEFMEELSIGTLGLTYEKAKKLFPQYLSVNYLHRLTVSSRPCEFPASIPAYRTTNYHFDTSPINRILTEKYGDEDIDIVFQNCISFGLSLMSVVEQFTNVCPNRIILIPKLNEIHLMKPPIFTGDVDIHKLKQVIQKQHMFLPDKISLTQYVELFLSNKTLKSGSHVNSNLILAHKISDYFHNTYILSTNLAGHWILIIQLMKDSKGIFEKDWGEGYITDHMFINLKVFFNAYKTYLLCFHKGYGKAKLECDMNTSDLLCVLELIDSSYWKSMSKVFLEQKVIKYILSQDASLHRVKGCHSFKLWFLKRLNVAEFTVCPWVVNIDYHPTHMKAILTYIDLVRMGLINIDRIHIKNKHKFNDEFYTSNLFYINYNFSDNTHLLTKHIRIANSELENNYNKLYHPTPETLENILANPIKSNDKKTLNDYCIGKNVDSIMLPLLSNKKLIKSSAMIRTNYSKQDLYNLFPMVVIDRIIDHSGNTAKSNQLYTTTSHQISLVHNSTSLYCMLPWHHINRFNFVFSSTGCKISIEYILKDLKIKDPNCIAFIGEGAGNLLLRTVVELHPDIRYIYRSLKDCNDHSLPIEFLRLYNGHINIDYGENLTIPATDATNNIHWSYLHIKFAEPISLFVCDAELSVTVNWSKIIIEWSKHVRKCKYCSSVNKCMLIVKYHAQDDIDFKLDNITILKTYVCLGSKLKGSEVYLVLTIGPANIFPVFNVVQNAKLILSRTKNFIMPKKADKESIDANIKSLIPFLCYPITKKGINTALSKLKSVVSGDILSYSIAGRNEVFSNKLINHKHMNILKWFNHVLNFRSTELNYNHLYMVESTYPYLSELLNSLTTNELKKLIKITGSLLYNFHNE

[3] = 96 h, RT-PCR assay, HEp-2 cells, RSV A2 MOI 0.1, 4 days after infection, read-out: EC50

Row | SMILES | EC50 [1] | EC50 (RSV A2 (ATCC: VR-1540); [3]) | further results
1 | C#C[C@]1(CO)O[C@@H](n2ccc(N)nc2=O)[C@H](F)[C@@H]1O [Compound 1a] | 100 to 250 µM |  | EC50 (RSV A2 (ATCC: VR-1540); HEp-2, 96 h): 10 to 100 µM
2 | C=C[C@]1(CO)O[C@@H](n2ccc(N)nc2=O)[C@H](F)[C@@H]1O [Compound 4a] | 100 to 250 µM | 10 to 100 µM | EC50 (hPIV3-eGFP): > 100 µM
3 | Nc1ccn([C@@H]2OC(CO)(CO)[C@@H](O)[C@H]2F)c(=O)n1 [Compound 6a] | 100 to 250 µM |  | EC50 [2]: > 100 µM; EC50 (hPIV3-eGFP): > 100 µM
4 | C[C@]1(CO)O[C@@H](n2ccc(N)nc2=O)[C@H](F)[C@@H]1O [Compound 9a] | 100 to 250 µM | 10 to 100 µM | EC50 [2]: > 100 µM; EC50 (hPIV3-eGFP): > 100 µM
5 | C=C=C[C@]1(CO)O[C@@H](n2ccc(N)nc2=O)[C@H](F)[C@@H]1O [Compound 11a] |  | 1 to 10 µM | 
6 | Nc1ccn([C@@H]2O[C@@]3(CO)CO[C@H]3[C@H]2F)c(=O)n1 [Compound 12a] | 100 to 250 µM |  | 
7 | CC[C@]1(COP2(=O)OCc3cccc(C)c3O2)O[C@@H](n2ccc(N)nc2=O)[C@H](F)[C@@H]1O (stereo partly drawn) [Compound 14a] |  |  | EC50 (RSV A2 (ATCC: VR-1540); HEp-2, 96 h): < 1 µM
8 | C=C[C@]1(COP(=O)(N[C@@H](C)C(=O)OC(C)C)Oc2ccccc2)O[C@@H](n2ccc(N)nc2=O)[C@H](F)[C@@H]1O (stereo partly drawn) [Compound 16a] | 100 to 250 µM |  | 
9 | C=C[C@]1(COP(=O)(N[C@@H](C)C(=O)OC(C)C)Oc2ccccc2)O[C@@H](n2ccc(=O)[nH]c2=O)[C@H](F)[C@@H]1O (stereo partly drawn) [Compound 17a] | 100 to 250 µM |  | 
10 | C#C[C@]1(COP(=O)(N[C@@H](C)C(=O)OC(C)C)Oc2ccccc2)O[C@@H](n2ccc(=O)[nH]c2=O)[C@H](F)[C@@H]1O (stereo partly drawn) [Compound 18a] | 100 to 250 µM |  | 
11 | CCC[C@]1(CO)O[C@@H](n2ccc(N)nc2=O)[C@H](F)[C@@H]1O [Compound 21a] | 100 to 250 µM | < 1 µM | 
12 | CO[C@]1(CO)O[C@@H](n2ccc(N)nc2=O)[C@H](F)[C@@H]1O [Compound 22a] | 100 to 250 µM | 10 to 100 µM | EC50 [2]: > 100 µM; EC50 (hPIV3-eGFP): > 100 µM
13 | Nc1ccn([C@@H]2O[C@@](CO)(CF)[C@@H](O)[C@H]2F)c(=O)n1 [Compound 23a] | 100 to 250 µM | < 1 µM | EC50 [2]: > 100 µM; EC50 (hPIV3-eGFP): > 100 µM
14 | C=C[C@]1(CO)O[C@@H](n2cnc3c(=O)[nH]c(N)nc32)[C@H](F)[C@@H]1O [Compound 25a, 2′-Deoxy-2′-fluoro-4′-C-(ethenyl)guanosine] | < 20 µM | 10 to 100 µM | 
15 | N#C[C@]1(CO)O[C@@H](n2cnc3c(=O)[nH]c(N)nc32)[C@H](F)[C@@H]1O [Compound 26a] | 100 to 250 µM | 1 to 10 µM | 
16 | C#C[C@]1(CO)O[C@@H](n2cnc3c(=O)[nH]c(N)nc32)[C@H](F)[C@@H]1O [Compound 27a] | 20 to 100 µM | 1 to 10 µM | 
17 | CO[C@]1(CO)O[C@@H](n2cnc3c(=O)[nH]c(N)nc32)[C@H](F)[C@@H]1O [Compound 28a] | 100 to 250 µM | 1 to 10 µM | 
18 | CC(C)(C)C(=O)OCOP(=O)(OCOC(=O)C(C)(C)C)OC[C@@]1(CCl)O[C@@H](n2ccc(N)nc2=O)[C@H](F)[C@@H]1O [Compound 30a] | 100 to 250 µM | < 1 µM | 
19 | CC[C@]1(COP(=O)(OCOC(=O)C(C)(C)C)OCOC(=O)C(C)(C)C)O[C@@H](n2ccc(N)nc2=O)[C@H](F)[C@@H]1O [Compound 31a] | 100 to 250 µM | 1 to 10 µM | 
20 | CC[C@]1(COP(=O)(OCCSC(=O)C(C)(C)C)OCCSC(=O)C(C)(C)C)O[C@@H](n2ccc(N)nc2=O)[C@H](F)[C@@H]1O [Compound 33a] |  | < 1 µM | 
21 | CC[C@]1(COP(=O)(O)OP(=O)(O)OP(=O)(O)O)O[C@@H](n2ccc(N)nc2=O)[C@H](F)[C@@H]1O [Compound 36a] |  |  | EC50 (RSV polymerase): < 2 µM
22 | C#C[C@]1(COP(=O)(O)OP(=O)(O)OP(=O)(O)O)O[C@@H](n2ccc(N)nc2=O)[C@H](F)[C@@H]1O [Compound 36c] |  |  | EC50 (RSV polymerase): < 2 µM
23 | CC(F)[C@]1(COP(=O)(O)OP(=O)(O)OP(=O)(O)O)O[C@@H](n2ccc(N)nc2=O)[C@@H](F)[C@H]1O (stereo partly drawn) [Compound 36e] |  |  | EC50 (RSV polymerase): < 2 µM
24 | CC(C)CC[C@]1(COP(=O)(O)OP(=O)(O)OP(=O)(O)O)O[C@@H](n2ccc(N)nc2=O)[C@H](F)[C@@H]1O [Compound 36i] |  |  | EC50 (RSV polymerase): 2 to 10 µM
25 | C=C(C)[C@]1(COP(=O)(O)OP(=O)(O)OP(=O)(O)O)O[C@@H](n2ccc(N)nc2=O)[C@H](F)[C@@H]1O [Compound 36j] |  |  | EC50 (RSV polymerase): 2 to 10 µM
26 | CC[C@]1(CO)O[C@@H](n2cnc3c(=O)[nH]c(N)nc32)[C@H](F)[C@@H]1O [Compound 39a] | 20 to 100 µM | 1 to 10 µM | 
